# Test results taken from patent US12485170B2, “Lipid composition targeting antigen-presenting cells and use thereof” (Beijing Youcare Kechuang Pharmaceutical Technology Co., Ltd., priority 2024, dated 2025).
# Entries after “also recorded” stand apart in the source; their conditions may differ. Where two headings read alike, the source gives them in different places.
# Assay: Solubility of anionic lipids in ethanol during preparation
# Experimental: General method 1: The components of the lipid composition (including permanently anionic lipids, permanently cationic lipids, and/or neutral lipids, or combinations thereof) were dissolved in ethanol according to the specified molar ratio to prepare an ethanol lipid complex solution (with a total lipid concentration of 100 to 600 mM). The ethanol lipid complex solution was rapidly added to RNase-free water using the ethanol injection method. After stirring for 30 minutes, the resulting lipid composition solution was filtered through a polycarbonate membrane with a pore size of 100 nm to 400 nm.
# General method 2: Permanently anionic lipids or compounds were dissolved in RNase-free water to obtain RNase-free water containing permanently anionic lipids. Permanently cationic lipids and neutral lipids were dissolved in ethanol according to the specified molar ratio to prepare an ethanol lipid complex solution (with a total lipid concentration of 100 to 600 mM). The ethanol lipid complex solution was rapidly added to the RNase-free water containing permanently anionic lipids using the ethanol injection method. After stirring for 30 minutes, the resulting lipid composition solution was filtered through a polycarbonate membrane with a pore size of 100 nm to 400 nm.
# The molar ratio of permanently anionic lipids, permanently cationic lipid DOTMA, and neutral lipid DOPE in the different complexes was controlled at 1:2:1, and the particle size and PDI were measured.
SMILES,Notes: solubility of the anionic lipid in ethanol (phosphate sodium salt),Notes: solubility of the anionic lipid in ethanol,Notes: solubility of the anionic lipid in ethanol (listed as farnesyl pyrophosphate),Notes: solubility of the anionic lipid in ethanol (listed as pA (2′-OMe) mpG)
"CCCCCCCC/C=C\CCCCCCCC(=O)OC[C@H](COP(=O)([O-])OCCNC(C)=O)OC(=O)CCCCCCC/C=C\CCCCCCCC.[Na+] [ADOPE, 2-acetamidoethyl ((R)-2,3-bis(oleoyloxy)propyl) phosphate sodium salt]","good solubility in ethanol; also recorded: Soluble in ethanol,",,,
CC(C)=CCC/C(C)=C/CC/C(C)=C/CO[P@@](=O)(O)OP(=O)(O)O (stereo in doubt) [Farnesyl pyrophosphate],,"Insoluble in ethanol,",lower solubility in ethanol,
"COC1C(OP(=O)(O)OC[C@H]2O[C@@H](n3cnc4c(=O)[nH]c(N)nc43)C(O)C2O)[C@@H](COP(=O)(O)O)O[C@H]1n1cnc2c(N)ncnc21 (stereo partly drawn) [pA(2′-OMe)mpG, ((2R,3S,4S,5R)-3-(((((2R,3R,4S,5R)-5-(2-amino-6-oxo-1,6-dihydro-9H-purin-9-yl)-3,4-dihydroxytetrahydrofuran-2-yl)methoxy) (hydroxy)phosphoryl)oxy)-5-(6-amino-9H-purin-9-yl)-4-methoxytetrahydrofuran-2-yl) methyl dihydrogen phosphate]",,"Insoluble in ethanol,",,lower solubility in ethanol
CCCCCCCC/C=C\CCCCCCCC(=O)O [Oleic acid],,"Soluble in ethanol,",,
